One experiment deals with T1, Aster-A (Homo sapiens, UniProt Q96CP6).
T1 construct: Aster-A(359-547); GST (PreScission-cleavable) (N, cleaved yes); made in house; host or cells: E. coli OverExpress C41
T1 sequence (Q96CP6 359-547): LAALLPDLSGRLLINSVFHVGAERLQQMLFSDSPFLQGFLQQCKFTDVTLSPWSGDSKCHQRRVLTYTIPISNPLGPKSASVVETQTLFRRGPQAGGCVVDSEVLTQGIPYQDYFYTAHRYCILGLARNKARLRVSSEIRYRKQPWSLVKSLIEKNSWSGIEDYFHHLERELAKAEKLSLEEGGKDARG
Put plainly: Fluorescence polarisation (FP) competition with NBD-cholesterol, Aster-A. In kind it is binding. Particulars: for Aster-A (FP) inhibition / inhibition at 10 µM: single dose, Dose = 10 µM; for IC50: mean of three experiments run in technical duplicates. From the text:
(§1) Protein expression constructs
(§2) Human ASTER domains of Aster-A(359-547), -B(364-552) and -C(318-504) were subcloned into a pGEX-6p-2rbs vector, thus introducing the cloning artifact ‘GPLGS’.3 The pGEX-6P-1-GST-OSBP(377- […]
(§3) a gift from James H. Hurley (University of California).4 The pHIS_2His6_Thrombin_STARD4(2-205;C75S) plasmid was a gift from Young Jun Im (Chonnam National University).5 STARD5A was a gift from Nicola Burgess-Brown (Addgene plasmid #42392; http://n2t.net/addgene:42392; […]
(§4) Protein expression and purification […]
(§5) vectors including an N-terminal PreScission-cleavable glutathione S-transferase (GST)-tag were expressed in Escherichia coli (E. coli) OverExpress C41 in Terrific Broth (TB) medium for 16 h at 18 °C after the induction with 0.1 mM isopropyl β-D-1-thiogalactopyranoside (IPTG). Cells were harvested at 3500 × g for 15 minutes and lysed by sonication in buffer containing 50 mM HEPES pH 7.5, 300 mM NaCl, 10 %v/v glycerol, 5 mM dithiothreitol (DTT), 0.1 %v/v Triton X-100 and protease inhibitor mix HP plus (Serva). The lysate was purified by affinity chromatography on a GSTrap FF column (Cytiva) using an ÄKTA Start (Cytiva) in buffer containing 50 mM HEPES pH 7.5, 300 mM NaCl, 10 %v/v glycerol, 5 mM DTT and 0.01 %v/v Triton X-100. The GST-tag was cleaved overnight on the column at 4 °C. The Aster sterol binding domains were further purified by size-exclusion chromatography (SEC) on a HiLoad 16/600 Superdex 75 pg (Cytiva) in buffer containing 20 mM HEPES pH 7.5, 300 mM NaCl, 10 %v/v […]
(§6) STARD5(6-213) harboring an N-terminal His6-Tag were expressed in E. coli BL21(DE3) in Luria-Bertani Broth (LB) medium for approximately 16 h at 18 °C after induction with 0.15 mM IPTG. Cells were harvested at 3500 × g for 15 minutes and lysed by sonication in buffer containing 50 mM HEPES pH 7.5, 150 mM NaCl, 5 %v/v glycerol, 5 mM DTT, 0.1 %v/v Triton X -100 and ethylenediaminetetraacetic acid (EDTA)-free protease inhibitor cocktail (Sigma-Aldrich). The cleared lysate was purified by affinity chromatography on a Ni-NTA Superflow Cartridge (Qiagen) using an ÄKTA Start (Cytiva) in buffer containing 50 mM HEPES pH 7.5, 150 mM NaCl, 5 %v/v glycerol, 5 mM DTT. START domains were eluted by using elution buffer containing 50 mM HEPES pH 7.5, 150 mM NaCl, 5 %v/v glycerol, 5 mM DTT and 500 mM imidazole. Proteins were further purified by SEC on a HiLoad 16/600 Superdex 75 pg (Cytiva) in buffer containing 20 mM HEPES pH 7.5, 150 mM NaCl, 5 %v/v glycerol and 2 mM DTT.
(§7) The ORP domain of human OSBP(377-807) in the pGEX-6p-1 vector with an N-terminal PreScission-cleavable GST-tag was expressed in E. coli OverExpress C41 in LB medium for 16 h at 18 °C after induction with 0.1 mM IPTG. Cells were harvested at 3500 × g for 15 minutes and lysed by sonication in buffer containing 20 mM HEPES pH 7.5, 300 mM NaCl, 10 %v/v glycerol, 5 mM DTT, 0.1 %v/v Triton X-100 and EDTA-free protease inhibitor cocktail (Sigma-Aldrich). The cleared lysate was purified by affinity chromatography on a GSTrap HF column (Cytiva) using an ÄKTA Start (Cytiva) in buffer containing 20 mM HEPES pH 7.5, 300 mM NaCl, 10 %v/v glycerol, 5 mM DTT. OSBP(377 -807) was eluted by using elution buffer containing 20 mM HEPES pH 7.5, 300 mM NaCl, 10 %v/v glycerol, 5 mM DTT and 10 mM reduced glutathione. Proteins were further purified by SEC on a HiLoad 16/600 Superdex 75 pg (Cytiva) using an ÄKTA Explorer (Cytiva) in buffer containing 20 mM HEPES pH 7.5, 150 mM NaCl, 10 %v/v glycerol and 2 mM DTT.
(§8) The ORP domains of human ORP1(534-950) in pET24b(+) and ORP2(49-480) in the pET24b(+) vector including an N-terminal His6-Tag were expressed in E. coli BL21(DE3) in TB medium for approximately 16 h at 18 °C after induction with 0.1 mM IPTG. Cells were collected at 3500 × g for 15 minutes and lysed by sonification in buffer containing 10 mM Tris-HCl pH 8, 300 mM NaCl, 5 % glycerol, 2 mM DTT, 0.1 % Triton X-100 and EDTA-free protease inhibitor cocktail (Sigma-Aldrich). The cleared […]

The target in the next experiment is T2, ORP2 (Homo sapiens, UniProt Q9H1P3).
T2 construct: ORP2(49-480); host or cells: E. coli BL21(DE3)
T2 sequence (Q9H1P3 49-480): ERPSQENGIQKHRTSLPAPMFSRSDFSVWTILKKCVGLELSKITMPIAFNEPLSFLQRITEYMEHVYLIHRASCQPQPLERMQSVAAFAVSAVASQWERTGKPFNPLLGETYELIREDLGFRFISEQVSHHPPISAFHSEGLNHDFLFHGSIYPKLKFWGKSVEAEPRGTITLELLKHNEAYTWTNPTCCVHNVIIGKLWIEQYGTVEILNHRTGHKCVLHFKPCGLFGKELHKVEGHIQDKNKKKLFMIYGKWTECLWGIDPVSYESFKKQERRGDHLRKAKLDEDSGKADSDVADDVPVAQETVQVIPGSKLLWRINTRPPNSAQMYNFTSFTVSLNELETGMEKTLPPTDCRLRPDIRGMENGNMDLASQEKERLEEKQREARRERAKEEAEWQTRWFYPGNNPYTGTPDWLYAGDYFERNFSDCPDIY
Nature of the experiment: Fluorescence polarisation (FP) competition with NBD-cholesterol, ORP2. In kind it is binding. Particulars: for ORP2 (FP) inhibition / inhibition at 10 µM: single dose, Dose = 10 µM; for IC50: mean of three experiments run in technical duplicates.
Excerpt: as §1, §2, §3, §4, §5, §6, §7, §8

Experimental findings from paper PMC11758220, “Identification of a Privileged Scaffold for Inhibition of Sterol Transport Proteins through the Synthesis and Ring Distortion of Diverse, Pseudo-Natural Products” (ACS Central Science, 2025) are described below.

Consider `C[C@]12CC[C@@H](O)C[C@H]1CCc1c2[nH]c2ccc(Cl)cc12` [Compound 10c], for which, on Aster-A, the “Aster-A (FP) inhibition” value stood at 1%. Further, the “ORP2 (FP) inhibition” value at ORP2 is 32%.
With `CC12CCC3CC1CCC21C(=Nc2ccc(N4CCOCC4)cc21)O3` (racemic) [Compound 19a], at Aster-A, the concentration for half-maximal inhibition (IC50) amounted to 0.77 µM and the inhibition at 10 µM came out at 60%. Also, on ORP2, the concentration for half-maximal inhibition (IC50) was more than 80 µM and the inhibition at 10 µM was 27%.
Turning to `CC(C)(C)OC(=O)N1CCN(c2ccc3c(c2)C24CCC5CC(CCC52C)OC4=N3)CC1` (stereo not drawn) [Compound 19e], at Aster-A, the IC50 was determined as 1.25 µM and the inhibition at 10 µM was 94%. Further, the inhibition at 10 µM at ORP2 amounted to 34%.
In the case of `CC12CCC(O)CC1CCc1c2[nH]c2ccc(C(F)(F)F)cc12` (stereo not drawn) [Compound 10g], the inhibition at 10 µM was -8% at Aster-A and 57.7% on ORP2.
As for `CC12CCC3CC1CCC21C(=Nc2ccc(Br)cc21)O3` (single isomer, unassigned; (+)) [(+)-15b], on Aster-A, the IC50 was 35 µM and the inhibition at 10 µM was 2%. At ORP2, the half-maximal inhibitory concentration (IC50) was more than 80 µM and the inhibition at 10 µM came out at 35%.
In the case of `Cc1cc2nc3c(nc2cc1C)[C@@]1(C)CC[C@@H](O)C[C@H]1CC3` [Compound 7b], the inhibition at 10 µM was -1% at Aster-A and 12% at ORP2.
Turning to `Cc1ccc2[nH]c3c(c(=O)c2c1)C[C@@H]1C[C@H](O)CC[C@]31C` [Compound 12], the figures for the inhibition at 10 µM at Aster-A and at ORP2 were -1% and 5%, respectively.
In the same order, the values of `COc1ccc(-c2nc3c(s2)CC[C@@H]2C[C@H](O)CC[C@]32C)cc1` [Compound 8d] are -1% and 38%.
Taken in the same sequence, the figures for `Cc1c2c(nc3ccccc13)[C@@]1(C)CC[C@@H](O)C[C@H]1CC2` [Compound 2a] were 1% and 43.5%.
In the same order, the values of `Cc1ccc2c(c1)C(=O)CC[C@@H]1C[C@H](O)CC[C@]1(C)C(=O)N2` [Compound 11c] are -4% and -1%.
As to `CC12CCC3CC1CCC21C(=Nc2ccc(N4CCOCC4)cc21)O3` (single isomer, unassigned; (+)) [(+)-19a], on Aster-A, the IC50 stood at 15.4 µM and the “Aster-A (FP) inhibition” value is 12%. Besides, at ORP2, the concentration for half-maximal inhibition (IC50) is more than 80 µM and the “ORP2 (FP) inhibition” value is reported as 7%.
As to `C[C@]12CC[C@@H](O)C[C@H]1CCC(=O)c1cc(Cl)cc(F)c1NC2=O` [Compound 11f], the “Aster-A (FP) inhibition” value at Aster-A is recorded as -1%. Further, the “ORP2 (FP) inhibition” value at ORP2 is 7%.
`C[C@]12CC[C@@H](O)C[C@H]1CCc1sc(-c3ccc(F)cc3)nc12` [Compound 8e]: the “Aster-A (FP) inhibition” value at Aster-A is -3%. Also, the “ORP2 (FP) inhibition” value on ORP2 was determined as 25%.
With `C[C@]12CC[C@@H]3C[C@H]1CC[C@@]21C(=Nc2ccc(N4CCN(Cc5ccncc5)CC4)cc21)O3` [Compound 24], at Aster-A, the IC50 turned out to be 5.33 µM and the inhibition at 10 µM turned out to be 54%. Besides, the inhibition at 10 µM at ORP2 came to 27%.
Taken in the same sequence, the figures for `Cc1ccc2c(c1)[C@@]13CC[C@@H]4C[C@@H](CC[C@@]41C)OC3=N2` [Compound 15e] were 6.03 µM, 45% and 38%.
Consider `C[C@]12CC[C@@H](O)C[C@H]1CCC(=O)c1cc(C(F)(F)F)ccc1NC2=O` [Compound 11e], for which the inhibition at 10 µM at Aster-A was -2%; at ORP2, 5%.
Turning to `Cc1ccc2[nH]c3c(c2c1)CC[C@@H]1C[C@H](O)CC[C@]31C` [Compound 10e], the inhibition at 10 µM was -4% on Aster-A and 50.6% on ORP2.
With `C[C@]12CC[C@@H](O)C[C@H]1CCC(=O)c1ccccc1NC2=O` [Compound 11a], the “Aster-A (FP) inhibition” value at Aster-A is on record as -1%. Also, on ORP2, the “ORP2 (FP) inhibition” value came to 6%.
In the same order, the values of `CCCCCN(c1ccc2c(c1)[C@@]13CC[C@@H]4C[C@@H](CC[C@@]41C)OC3=N2)c1ccc2c(c1)[C@@]13CC[C@@H]4C[C@@H](CC[C@@]41C)OC3=N2` [Compound 20b] are 2% and 2%.
Regarding `COc1ccc2c(c1)C(=O)CC[C@@H]1C[C@H](O)CC[C@]1(C)C(=O)N2` [Compound 11d], the inhibition at 10 µM on Aster-A is -1%; at ORP2 it was 11%.
On to `C[C@]12CC[C@@H](O)C[C@H]1CCC[C@]21NC(=O)c2ccccc2N1` [Compound 5a], for which, at Aster-A, the “Aster-A (FP) inhibition” value is listed as -2% and the inhibition at 10 µM was determined as 0%. Besides, on ORP2, the “ORP2 (FP) inhibition” value amounted to 11% and the inhibition at 10 µM was found to be 6%.
Turning to `CCOC(=O)c1ccc2[nH]c3c(c2c1)CC[C@@H]1C[C@H](O)CC[C@]31C` [Compound 10k], at Aster-A, the “Aster-A (FP) inhibition” value is listed as 1%. Moreover, the “ORP2 (FP) inhibition” value on ORP2 is given as 11%.
As for `C[C@]12CC[C@@H]3C[C@H]1CC[C@@]21C(=Nc2ccc(F)cc21)O3` [Compound 15d], on Aster-A, the IC50 was determined as 12.5 µM and the inhibition at 10 µM is 25%. The inhibition at 10 µM on ORP2 was 25%.
On to `COc1ccc2[nH]c3c(c2c1)CC[C@@H]1C[C@H](O)CC[C@]31C` [Compound 10f], for which the inhibition at 10 µM came out at 0% on Aster-A and 36.5% on ORP2.
Taken in the same sequence, the figures for `COc1ccc2c(c1)[C@]1(O)CC[C@@H]3C[C@H](O)CC[C@]3(C)C1=N2` [Compound 14b] were 8% and 25%.
Take `C[C@]12CC[C@@H]3C[C@H]1CC[C@@]21C(=Nc2ccc(Br)cc21)O3` (racemic) [Compound 15b]: at Aster-A, the IC50 was found to be 4.3 µM and the inhibition at 10 µM turned out to be 67%. At ORP2, the half-maximal inhibitory concentration (IC50) was 7.14 µM and the inhibition at 10 µM worked out at 29%.
